Assays:
Assay in all cases: calcium imaging (FLIPR), activation of hTAS2R-transfected HEK293T-Gα16gust44 cells
Assay type in all cases: cell-based
[1] = target: T1, hTAS2R44 (Homo sapiens, UniProt P59538, L162M)
T1 construct: expressed in transfected cells; host or cells: HEK293T cells stably expressing chimeric Gα16gust44, transient transfection
T1 sequence (P59538 1-309 L162M): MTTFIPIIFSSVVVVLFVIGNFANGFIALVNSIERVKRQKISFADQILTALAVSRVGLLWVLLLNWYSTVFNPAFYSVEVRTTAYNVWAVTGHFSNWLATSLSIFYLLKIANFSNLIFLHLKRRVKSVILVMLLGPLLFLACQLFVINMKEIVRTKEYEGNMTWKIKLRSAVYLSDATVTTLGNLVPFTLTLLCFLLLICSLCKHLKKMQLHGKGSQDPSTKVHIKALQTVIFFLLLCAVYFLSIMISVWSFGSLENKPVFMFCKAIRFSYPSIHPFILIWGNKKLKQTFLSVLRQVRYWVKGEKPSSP
Description: (§1) Human TAS2R cDNAs were cloned into pcDNA5/FRT (Invitrogen, San Diego, Calif.). For adequate plasma membrane targeting, receptor cDNA was fused to the aminoterminal sequence of the rat somatostatin type 3 receptor at the aminoterminus of the recombinant protein (Bufe, B., T. Hofmann, et al. (2002) Nat Genet. 32(3): 397-401). For immunological detection, the Herpes simplex Glycoprotein D epitope was supplemented at the carboxyterminus of the recombinant protein (Bufe et al., supra). Receptor constructs were transiently transfected into HEK293T cells stably expressing the chimeric G protein subunit Gα16gust44 (Ueda, T., S. Ugawa, et al. (2003) J Neurosci 23(19): 7376-80) using Lipofectamine 2000 (Invitrogen, San Diego, Calif.) in 96-well plates.
(§2) Calcium Imaging experiments were performed 24 h after transfection using a Fluorometric Imaging Plate Reader (FLIPR, Molecular Devices, Munich, Germany) as previously described (Bufe et al., supra). Taste active compounds were ordered from Sigma (Sigma-Aldrich, Taufkirchen, Germany). Absinthin, 3β hydroxy dihydro costunolide and 3β hydroxy pelenolide were kindly provided by Giovanni Appendino (Novara, Italy). Test substances were directly dissolved in C1 buffer (130 mM NaCl, 10 mM Na-Hepes, 10 mM Glucose, 5 mM KCl, 2 mM CaCl2, pH 7.4) or in DMSO, respectively. DMSO stocks were further diluted in C1 buffer not exceeding a final DMSO concentration of 1% on the cells. For the investigation of antagonistic effects, test substances were premixed. Agonists were applied at concentrations corresponding to EC90, except where indicated otherwise (Table 2). Data were collected from 3 independent experiments performed in quadruplicates and processed with SigmaPlot (SPSS, Chicago, Ill.). Fluorescence signals after application of test substances were corrected for and normalized to background fluorescence (ΔF/F═(F−F0)/F0), and baseline noise was subtracted. Calculation of dose-response curves was done by nonlinear regression using the function f(y)=((a−d)/(1+(x/EC50)^nH)+d).
(§3) In a first series of experiments we tested the two sesquiterpene lactones 3β hydroxy dihydro costunolide (formula (I) in FIG. 1) and 3β hydroxy pelenolide (formula (II) in FIG. 1) for their ability to activate hTAS2 receptor-expressing HEK293T cells.
(§4) Signal amplitudes were comparatively small (FIG. 2C).

[2] = target: T2, hTAS2R38 (Homo sapiens, UniProt P59533); details: 100 μM test substance, bath application; DMSO control
T2 construct: expressed in transfected cells; host or cells: HEK293T cells stably expressing chimeric Gα16gust44, transient transfection
T2 sequence (P59533 1-333): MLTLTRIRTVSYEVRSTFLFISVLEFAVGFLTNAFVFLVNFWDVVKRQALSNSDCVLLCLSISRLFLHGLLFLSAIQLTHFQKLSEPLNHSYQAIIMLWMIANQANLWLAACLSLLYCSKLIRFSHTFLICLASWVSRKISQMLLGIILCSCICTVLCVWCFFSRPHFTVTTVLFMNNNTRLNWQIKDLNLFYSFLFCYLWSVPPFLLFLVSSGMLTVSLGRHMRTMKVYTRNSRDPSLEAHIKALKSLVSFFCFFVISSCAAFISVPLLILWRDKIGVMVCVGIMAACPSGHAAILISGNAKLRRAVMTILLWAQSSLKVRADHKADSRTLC
Description: as §1, §2, §3, §4

[3] = target: T3, hTAS2R7 (Homo sapiens, UniProt Q9NYW3); details: 100 μM test substance, bath application
T3 construct: expressed in transfected cells; host or cells: HEK293T cells stably expressing chimeric Gα16gust44, transient transfection
T3 sequence (Q9NYW3 1-318): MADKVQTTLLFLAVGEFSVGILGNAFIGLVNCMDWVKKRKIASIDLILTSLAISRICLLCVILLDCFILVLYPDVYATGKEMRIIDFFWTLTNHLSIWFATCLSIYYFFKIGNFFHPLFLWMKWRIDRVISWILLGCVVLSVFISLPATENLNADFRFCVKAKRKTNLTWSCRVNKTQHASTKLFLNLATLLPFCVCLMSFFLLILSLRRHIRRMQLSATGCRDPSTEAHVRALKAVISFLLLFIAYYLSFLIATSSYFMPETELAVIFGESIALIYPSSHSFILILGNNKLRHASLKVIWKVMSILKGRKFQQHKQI
Description: as §1, §2, §3, §4

[4] = target: T4, hTAS2R46 (Homo sapiens, UniProt P59540); details: 100 μM test substance, bath application
T4 construct: expressed in transfected cells; host or cells: HEK293T cells stably expressing chimeric Gα16gust44, transient transfection
T4 sequence (P59540 1-309): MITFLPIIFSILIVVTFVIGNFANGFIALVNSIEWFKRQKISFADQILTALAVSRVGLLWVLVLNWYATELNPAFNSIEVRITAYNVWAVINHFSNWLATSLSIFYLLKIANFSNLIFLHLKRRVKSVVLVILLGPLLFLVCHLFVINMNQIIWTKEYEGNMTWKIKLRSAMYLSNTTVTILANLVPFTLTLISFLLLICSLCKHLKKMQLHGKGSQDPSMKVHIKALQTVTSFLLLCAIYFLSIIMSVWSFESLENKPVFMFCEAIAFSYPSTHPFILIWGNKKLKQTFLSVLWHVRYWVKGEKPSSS
Description: as §1
as §2, with “f(y)=((a−d)/(1+(x/EC50)^nH)+d). […]” for “f(y)=((a−d)/(1+(x/EC50)^nH)+d).”
Finally, the impact of chemical modifications on the antagonistic properties of 3β hydroxy dihydro costunolide on hTAS2R46-expressing cells was studied. Derivatives of 3β hydroxy dihydro costunolide with site-directed modifications at C3 and C11 were generated (FIG. 7A) These derivatives were tested for activation or inhibition of hTAS2R46-expressing cells in the absence or presence of the agonist strychnine (3 μM) and half-maximum effective concentrations (EC50) or half-maximal inhibitory concentrations were calculated (FIG. 7B).

| SMILES | calcium response of hTAS2R44-transfected cells ([1]; 100 μM test substance, bath application) | EC50 ([1]; concentration-response, intracellular calcium) | calcium response of hTAS2R38-transfected cells [2] | calcium response of hTAS2R7-transfected cells [3] | calcium response of hTAS2R46-transfected cells [4] |
| --- | --- | --- | --- | --- | --- |
| C/C1=C\C[C@H](O)/C(C)=C/[C@H]2OC(=O)[C@@H](C)C2CC1 (stereo partly drawn) [3β hydroxy dihydro costunolide] | responded | 31.5 ± 7.4 µM | generated by DMSO used as solvent | responded |  |
| C/C1=C\C[C@H](O)[C@@H](C)C[C@H]2OC(=O)[C@@H](C)[C@@H]2CC1 [3β hydroxy pelenolide] |  |  |  |  | displayed calcium signals |
